# Measured values: ChEMBL document CHEMBL1128768, “Structure-activity relationships of tricyclic quinoxalinediones as potent antagonists for the glycine binding site of the NMDA receptor 1” (Bioorg Med Chem Lett, 1995)
# Target: Glutamate receptor ionotropic, NMDA 1 (Rattus norvegicus, UniProt P35439)
# Assay: Affinity measured by using [3H]5,7-dichlorokynurenic acid (DCKA) for the glycine binding site of NMDA receptor
row,Ki,SMILES
1,0.042 µM,C[C@H]1C[C@@H](CC(=O)O)n2c(=O)c(=O)[nH]c3cc(Br)cc1c32
2,0.241 µM,CC(C(=O)O)[C@@H]1CCc2cc(Br)cc3[nH]c(=O)c(=O)n1c23 (stereo in doubt; 23a)
3,0.0084 µM,CC(C)[C@H]1Cc2cc(Br)cc3[nH]c(=O)c(=O)n(c23)[C@@H]1CC(=O)O
4,0.76 µM,C[C@@]1(CC(=O)Nc2ccccc2)CCc2cc(Br)cc3[nH]c(=O)c(=O)n1c23
5,0.0026 µM,O=C(C[C@@H]1CCc2cc(Br)cc3[nH]c(=O)c(=O)n1c23)Nc1ccccc1
6,0.665 µM,CC(C(=O)Nc1ccccc1)[C@@H]1CCc2cc(Br)cc3[nH]c(=O)c(=O)n1c23 (stereo in doubt; 23b)
7,0.59 µM,CC(C(=O)Nc1ccccc1)[C@@H]1CCc2cc(Br)cc3[nH]c(=O)c(=O)n1c23 (stereo in doubt; 24b)
8,0.0099 µM,O=C(O)C[C@@H]1CCc2cc(Br)cc3[nH]c(=O)c(=O)n1c23
9,0.021 µM,C[C@@H]1Cc2cc(Br)cc3[nH]c(=O)c(=O)n(c23)[C@@H]1CC(=O)Nc1ccccc1
10,0.0074 µM,C[C@@H]1C[C@@H](CC(=O)Nc2ccccc2)n2c(=O)c(=O)[nH]c3cc(Br)cc1c32
11,0.451 µM,C[C@@]1(CC(=O)O)CCc2cc(Br)cc3[nH]c(=O)c(=O)n1c23
12,0.0296 µM,C[C@@H]1Cc2cc(Br)cc3[nH]c(=O)c(=O)n(c23)[C@@H]1CC(=O)O
13,0.003 µM,C[C@H]1Cc2cc(Br)cc3[nH]c(=O)c(=O)n(c23)[C@@H]1CC(=O)Nc1ccccc1
14,0.0014 µM,CC[C@H]1Cc2cc(Br)cc3[nH]c(=O)c(=O)n(c23)[C@@H]1CC(=O)O
15,0.0038 µM,CC[C@H]1Cc2cc(Br)cc3[nH]c(=O)c(=O)n(c23)[C@@H]1CC(=O)Nc1ccccc1
16,0.3 µM,CC(C(=O)O)[C@@H]1CCc2cc(Br)cc3[nH]c(=O)c(=O)n1c23 (stereo in doubt; 24a)
17,0.0171 µM,C[C@H]1C[C@@H](CC(=O)Nc2ccccc2)n2c(=O)c(=O)[nH]c3cc(Br)cc1c32
18,0.0033 µM,C[C@H]1Cc2cc(Br)cc3[nH]c(=O)c(=O)n(c23)[C@@H]1CC(=O)O
19,0.0383 µM,C[C@@H]1C[C@@H](CC(=O)O)n2c(=O)c(=O)[nH]c3cc(Br)cc1c32
